This is an account of results in paper PMC4057681, “Antenna-Specific Glutathione S-Transferase in Male Silkmoth Bombyx mori” (International Journal of Molecular Sciences, 2014).

This assay concerns T1, BmGSTD4.
T1 construct: 245 aa precursor; signal peptide (22 aa) and the first two mature residues (Gly, Pro) removed; p28 vector (from pET28a), nickel column, E. coli Rosetta (DE3); about 26 kDa on SDS-PAGE; mature calculated 25,518 Da; by translation of printed primers: precursor begins MLTASVLG, construct begins (M)KKLVAPIK, C-terminus FINKDDE
In words: spectrophotometric GSH conjugation at […] nm, steady-state kinetics. It counts as biochemical, Bombyx mori. The following applies: 1 mM GSH, 0.1 M phosphate buffer pH 6.5.

The Km is the concentration of substrate that gives half-maximal velocity.

On to `O=[N+]([O-])c1ccc(Cl)c([N+](=O)[O-])c1` [CDNB, 1-chloro-2,4-dinitrobenzene], for which the Michaelis-Menten constant (Km) was 20 µM.
